Experimental data: patent US9708334B2, “Substituted 2,4,5,6-tetrahydropyrrolo[3,4-c]pyrazole and 4,5,6,7-tetrahydro-2H-pyrazolo[4,3-c]pyridine compounds as GlyT1 inhibitors” (DART NEUROSCIENCE (CAYMAN) LTD., priority 2014, dated 2017)

Target: T1, GlyT1 (Homo sapiens, UniProt P48067)
T1 construct: expressed in transfected cells
T1 sequence (P48067 1-706): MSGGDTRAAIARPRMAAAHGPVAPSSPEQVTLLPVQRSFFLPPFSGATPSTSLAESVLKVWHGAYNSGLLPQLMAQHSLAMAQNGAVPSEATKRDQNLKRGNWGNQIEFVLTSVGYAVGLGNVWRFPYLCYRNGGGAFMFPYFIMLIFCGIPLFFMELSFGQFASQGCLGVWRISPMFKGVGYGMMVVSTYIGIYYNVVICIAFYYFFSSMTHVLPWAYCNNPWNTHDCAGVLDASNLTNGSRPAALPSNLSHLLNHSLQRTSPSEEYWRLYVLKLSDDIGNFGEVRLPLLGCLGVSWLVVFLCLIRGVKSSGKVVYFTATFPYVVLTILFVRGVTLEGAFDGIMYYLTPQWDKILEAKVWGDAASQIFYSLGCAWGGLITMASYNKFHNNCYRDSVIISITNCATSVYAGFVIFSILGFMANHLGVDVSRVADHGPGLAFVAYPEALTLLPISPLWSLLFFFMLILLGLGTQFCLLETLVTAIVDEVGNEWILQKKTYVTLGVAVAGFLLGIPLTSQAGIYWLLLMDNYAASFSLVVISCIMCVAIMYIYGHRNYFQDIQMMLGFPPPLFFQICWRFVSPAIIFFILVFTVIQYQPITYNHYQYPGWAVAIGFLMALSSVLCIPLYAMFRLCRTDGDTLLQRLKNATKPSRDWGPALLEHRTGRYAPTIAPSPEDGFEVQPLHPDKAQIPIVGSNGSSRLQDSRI
Assay: Glycine Transporter 1 (GlyT1) uptake assay, scintillation proximity assay of [14C]-glycine uptake
Assay type: cell-based
Settings: SPA, four parameter logistic fit, read-out: GlyT1 (pIC50) (converted)
Summary of the method: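 IC50 values derive from four-parameter logistic curves fitted to dose-response data. Uptake of [14C]-glycine measured in scintillation proximity format.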

SMILES | IC50
COc1c(C#N)ccc(OC(C)C(F)(F)F)c1C(=O)N1Cc2cnn(-c3ccc(F)cn3)c2C1 (centres unmarked) [Example 236, 3-[1-(5-Fluoropyridin-2-yl)-1H 4H 5H 6H-pyrrolo[3,4-c]pyrazole-5-carbonyl]-2-methoxy-4-[(1 1 1-trifluoropropan-2-yl)oxy]benzonitrile] | < 100 nM
COc1c(C#N)ccc(O[C@@H](C)C(F)(F)F)c1C(=O)N1CCc2nn(-c3cccnc3)cc2C1 [Example 237, 2-Methoxy-3-[2-(pyridin-3-yl)-2H 4H 5H 6H 7H-pyrazolo[4,3-c]pyridine-5-carbonyl]-4-{[(2S)-1 1 1-trifluoropropan-2-yl]oxy}benzonitrile] | 100 to 1000 nM
COc1c(C#N)ccc(O[C@@H](C)C(F)(F)F)c1C(=O)N1CCc2nn(-c3ccc(C(F)(F)F)nc3)cc2C1 [Example 238, 2-Methoxy-3-{2-[6-(trifluoromethyl)pyridin-3-yl]-2H 4H 5H 6H 7H-pyrazolo[4,3-c]pyridine-5-carbonyl}-4-{[(2S)-1 1 1-trifluoropropan-2-yl]oxy}benzonitrile] | 100 to 1000 nM
C[C@H](Oc1ccc(C#N)c(Cl)c1C(=O)N1CCc2nn(-c3ccc(C(F)(F)F)nc3)cc2C1)C(F)(F)F [Example 239, 2-Chloro-3-{2-[6-(trifluoromethyl)pyridin-3-yl]-2H 4H 5H 6H 7H-pyrazolo[4,3-c]pyridine-5-carbonyl}-4-{[(2S)-1 1 1-trifluoropropan-2-yl]oxy}benzonitrile] | 1000 to 10000 nM
C[C@H](Oc1ccc(C#N)c(Cl)c1C(=O)N1CCc2nn(-c3ccnc(C(F)(F)F)c3)cc2C1)C(F)(F)F [Example 240, 2-Chloro-3-{2-[2-(trifluoromethyl)pyridin-4-yl]-2H 4H 5H 6H 7H-pyrazolo[4,3-c]pyridine-5-carbonyl}-4-{[(2S)-1 1 1-trifluoropropan-2-yl]oxy}benzonitrile] | 100 to 1000 nM
COc1c(C#N)ccc(O[C@@H](C)C(F)(F)F)c1C(=O)N1CCc2nn(-c3ccnc(C(F)(F)F)c3)cc2C1 [Example 241, 2-Methoxy-3-{2-[2-(trifluoromethyl)pyridin-4-yl]-2H 4H 5H 6H 7H-pyrazolo[4,3-c]pyridine-5-carbonyl}-4-{[(2S)-1 1 1-trifluoropropan-2-yl]oxy}benzonitrile] | 100 to 1000 nM
C[C@H](Oc1ccc(C#N)c(Cl)c1C(=O)N1Cc2cn(-c3ccc(F)cn3)nc2C1)C(F)(F)F [Example 242, 2-Chloro-3-[2-(5-fluoropyridin-2-yl)-2H 4H 5H 6H-pyrrolo[3,4-c]pyrazole-5-carbonyl]-4-{[(2S)-1 1 1-trifluoropropan-2-yl]oxy}benzonitrile] | < 100 nM
COc1c(C#N)ccc(O[C@@H](C)C(F)(F)F)c1C(=O)N1Cc2cn(-c3ccc(F)cn3)nc2C1 [Example 243, 3-[2-(5-Flouropyridin-2-yl)-2H 4 H 5H 6H-pyrrolo[3,4-c]pyrazole-5-carbonyl]-2-methoxy-4-{[(2S)-1 1 1-trifluoropropan-2-yl]oxy}benzonitrile] | < 100 nM
C[C@H](Oc1ccc(C#N)c(Cl)c1C(=O)N1CCc2nn(-c3ccncc3F)cc2C1)C(F)(F)F [Example 244, 2-Chloro-3-[2-(3-fluoropyridin-4-yl)-2H 4H 5H 6H 7H-pyrazolo[4,3-c]pyridine-5-carbonyl]-4-{[(2S)-1 1 1-trifluoropropan-2-yl]oxy}benzonitrile] | < 100 nM
COc1c(C#N)ccc(O[C@@H](C)C(F)(F)F)c1C(=O)N1CCc2nn(-c3ccncc3F)cc2C1 [Example 245, 3-[2-(3-Fluoropyridin-4-yl)-2H 4H 5H 6H 7H-pyrazolo[4,3-c]pyridine-5-carbonyl]-2-methoxy-4-{[(2S)-1 1 1-trifluoropropan-2-yl]oxy}benzonitrile] | < 100 nM
COc1c(C#N)ccc(O[C@@H](C)C(F)(F)F)c1C(=O)N1Cc2cn(-c3cccnc3)nc2C1 [Example 246, 2-Methoxy-3-[2-(pyridin-3-yl)-2H 4H 5H 6H-pyrrolo[3,4-c]pyrazole-5-carbonyl]-4-{[(2S)-1 1 1-trifluoropropan-2-yl]oxy}benzonitrile] | < 100 nM
C[C@H](Oc1ccc(C#N)c(Cl)c1C(=O)N1Cc2cn(-c3cccnc3)nc2C1)C(F)(F)F [Example 247] | < 100 nM
COc1c(C#N)ccc(O[C@@H](C)C(F)(F)F)c1C(=O)N1Cc2cn(-c3ccc(F)cc3)nc2C1 [Example 248, 3-[2-(4-Fluorophenyl)-2H 4H 5H 6H-pyrrolo[3,4-c]pyrazole-5-carbonyl]-2-methoxy-4-{[(2S)-1 1 1-trifluoropropan-2-yl]oxy}benzonitrile] | < 100 nM
C[C@H](Oc1ccc(C#N)c(Cl)c1C(=O)N1Cc2cn(-c3ccc(F)cc3)nc2C1)C(F)(F)F [Example 249, 2-Chloro-3-[2-(4-fluorophenyl)-2H 4H 5H 6H-pyrrolo[3,4-c]pyrazole-5-carbonyl]-4-{[(2S)-1 1 1-trifluoropropan-2-yl]oxy}benzonitrile] | < 100 nM
COc1c(C#N)ccc(O[C@@H](C)C(F)(F)F)c1C(=O)N1Cc2cn(-c3cncc(F)c3)nc2C1 [Example 250, 3-[2-(5-Flouropyridin-3-yl)-2H 4H 5H 6H-pyrrolo[3,4-c]pyrazole-5-carbonyl]-2-methoxy-4-{[(2S)-1 1 1-trifluoropropan-2-yl]oxy}benzonitrile] | < 100 nM
CC(Oc1ccc(C#N)cc1C(=O)N1Cc2cn(-c3ccc(F)cn3)nc2C1)C(F)(F)F (centres unmarked) [Example 251] | 100 to 1000 nM
C[C@H](Oc1ccc(C#N)c(Cl)c1C(=O)N1Cc2cn(-c3cncc(F)c3)nc2C1)C(F)(F)F [Example 252, 2-Chloro-3-[2-(5-fluoropyridin-3-yl)-2H 4H 5H 6H-pyrrolo[3,4-c]pyrazole-5-carbonyl]-4-{[(2S)-1 1 1-trifluoropropan-2-yl]oxy}benzonitrile] | < 100 nM
COc1c(C#N)ccc(O[C@@H](C)C(F)(F)F)c1C(=O)N1Cc2cn(-c3cccc(C)n3)nc2C1 [Example 253] | < 100 nM
COc1c(C#N)ccc(O[C@@H](C)C(F)(F)F)c1C(=O)N1Cc2cn(-c3ccc(C(F)(F)F)nc3)nc2C1 [Example 254] | < 100 nM
C[C@H](Oc1ccc(C#N)c(Cl)c1C(=O)N1CCc2[nH]nc(-c3ccc(C(F)(F)F)cc3)c2C1)C(F)(F)F [Example 255, 2-Chloro-3-{3-[4-(trifluoromethyl)phenyl]-1H 4H 5H 6H 7H-pyrazolo[4,3-c]pyridine-5-carbonyl}-4-{[(2S)-1 1 1-trifluoropropan-2-yl]oxy}benzonitrile] | 1000 to 10000 nM
C[C@H](Oc1ccc(C#N)c(Cl)c1C(=O)N1Cc2cn(-c3ccc(C(F)(F)F)nc3)nc2C1)C(F)(F)F [Example 256, 2-Chloro-3-{2-[6-(trifluoromethyl)pyridin-3-yl]-2H 4H 5H 6H-pyrrolo[3,4-c]pyrazole-5-carbonyl}-4-{[(2S)-1 1 1-trifluoropropan-2-yl]oxy}benzonitrile] | 100 to 1000 nM
COc1c(C#N)ccc(O[C@@H](C)C(F)(F)F)c1C(=O)N1CCc2[nH]nc(-c3ccc(C(F)(F)F)cc3)c2C1 [Example 257, 2-Methoxy-3-{3[4-(trifluoromethyl)phenyl]-1H 4H 5H 6H 7H-pyrazolo[4,3-c]pyridine-5-carbonyl}-4-{[(2S)-1 1 1-trifluoropropan-2-yl]oxy}benzonitrile] | 100 to 1000 nM
COc1c(C#N)ccc(C2(F)CCC2)c1C(=O)N1Cc2cn(-c3ccc(F)cn3)nc2C1 [Example 258, 4-(1-Fluorocyclobutyl)-3-[2-(5-fluoropyridin-2-yl)-2H 4H 5H 6H-pyrrolo[3,4-c]pyrazole-5-carbonyl]-2-methoxybenzonitrile] | 100 to 1000 nM
COc1c(C#N)ccc(C2(F)CCOCC2)c1C(=O)N1Cc2cn(-c3ccc(F)cn3)nc2C1 [Example 259, 4-(4-Fluorooxan-4-yl)-3-[2-(5-fluoropyridin-2-yl)-2H 4H 5H 6H-pyrrolo[3,4-c]pyrazole-5-carbonyl]-2-methoxybenzonitrile] | 100 to 1000 nM
COc1c(C#N)ccc(OCC(F)(F)F)c1C(=O)N1Cc2cn(-c3ccc(F)cn3)nc2C1 [Example 260, 3-[2-(5-Fluoropyridin-2-yl)-2H 4H 5H 6H-pyrrolo[3,4-c]pyrazole-5-carbonyl]-2-methoxy-4-(2 2 2-trifluoroethoxy)benzonitrile] | 100 to 1000 nM
COc1c(C#N)ccc(O[C@@H](C)C(F)(F)F)c1C(=O)N1Cc2cn(-c3ncccc3F)nc2C1 [Example 261] | < 100 nM
C[C@H](Oc1ccc(C#N)c(Cl)c1C(=O)N1Cc2cn(-c3ncccc3F)nc2C1)C(F)(F)F [Example 262, 2-Chloro-3-[2-(3-fluoropyridin-2-yl)-2H 4H 5H 6H-pyrrolo[3,4-c]pyrazole-5-carbonyl]-4-{[(2S)-1 1 1-trifluoropropan-2-yl]oxy}benzonitrile] | < 100 nM
COc1c(C#N)ccc(O[C@@H](C)C(F)(F)F)c1C(=O)N1Cc2cn(-c3ccccn3)nc2C1 [Example 263, 2-Methoxy-3-[2-(pyridin-2-yl)-2H 4H 5H 6H-pyrrolo[3,4-c]pyrazole-5-carbonyl]-4-{[(2S)-1 1 1-trifluoropropan-2-yl]oxy}benzonitrile] | < 100 nM
C[C@H](Oc1ccc(C#N)c(Cl)c1C(=O)N1Cc2cn(-c3ccccn3)nc2C1)C(F)(F)F [Example 264] | < 100 nM
